Legend:
SMC = test: Smooth muscle cell proliferation on modified TG-PEG gels with PDGF-BB; type: cell-based
Experimental: Method: Three different gels were fabricated, unmodified PEG, and PEG gels modified with TNC III1-5 or FN III9*-10,TNC III1-5 (5 μM). Unbound fragment was washed from the gels. Sequentially, gels were incubated for 1 hour at 37° C. with 100 μL DMEM without PDGF-BB or with PDGF-BB (1 ng per gel). For one set of gels, the media containing PDGF-BB was removed and gels were washed for 1 hour at RT. Cells were added to each gel and a proliferation assay with Alamar Blue was performed at 72 hours.

[1] = target: T1, binding of TNC III1-5 to the cytokines (Homo sapiens, UniProt P24821); test: Competition ELISA: TNC III1-5 binding to cytokines with gradient of full length tenascin or heparin; details: high concentrations of competitor; 10 nM TNC III1-5
T1 construct: factor Xa cleavage site (N); made in house; host or cells: HEK-293E
T1 sequence (P24821 622-1074): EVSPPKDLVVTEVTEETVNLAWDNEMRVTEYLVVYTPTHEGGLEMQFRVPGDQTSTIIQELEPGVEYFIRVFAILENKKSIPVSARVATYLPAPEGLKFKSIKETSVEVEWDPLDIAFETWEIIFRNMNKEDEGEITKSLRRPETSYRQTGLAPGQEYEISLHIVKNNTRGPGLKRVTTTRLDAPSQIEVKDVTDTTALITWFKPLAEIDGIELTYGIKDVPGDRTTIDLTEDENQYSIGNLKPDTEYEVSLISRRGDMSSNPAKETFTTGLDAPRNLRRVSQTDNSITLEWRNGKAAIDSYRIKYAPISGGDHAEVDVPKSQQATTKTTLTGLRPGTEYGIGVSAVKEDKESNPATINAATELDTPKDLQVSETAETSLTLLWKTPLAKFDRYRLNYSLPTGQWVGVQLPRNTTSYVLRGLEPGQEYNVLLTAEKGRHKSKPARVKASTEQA
Experimental: ELISA plates were coated with cytokines or BSA and further incubated with TNC III1-5 in the presence of a gradient of full length tenascin or heparin to verify the specificity of the binding. […] TNC bound to the cytokines, making them unavailable for TNC III1-5, while heparin bound to TNC III1-5, blocking it to bind to the cytokines. Method: 50 nM of cytokine was coated for (1 hr, 37° C.). After blocking with 2% BSA (1 hr, RT). 10 nM TNC III1-5 was applied in PBST (0.05% tween, 0.1% bovine serum albumin (BSA)) (1 hr, RT) in the presence of a gradient of full length tenascin (0, 0.2, 0.6, 1.9, 5.6, 17, 50 nM) or heparin (0.01, 0.64, 3.2, 16, 80, 400, 2000, 10000). TNC III1-5 was detected with HRP-anti-HIS in PBST (1 hr, RT) and developed with TMB. Background values were obtained by applying each tenascin (0, 0.2, 0.6, 1.9, 5.6, 17, 50 nM) or heparin (0.01, 0.64, 3.2, 16, 80, 400, 2000, 10000) concentration to the cytokine without TNC III1-5, and were subtracted as normalization.
To verify specific binding of tenascin to the cytokines, tenascin (0, 0.1, 0.2, 0.6, 1.9, 5.6, 17, 50 nM) was incubated with PDGF-BB (50 nM) and BSA and detected with mouse anti-tenascin, HRP-anti-mouse, and TMB.

HUVEC cells = test: HUVEC proliferation with cytokines with or without fibrinogen or Fg β15-66; type: cell-based, human; details: 72 hours; ≧100-fold molar excess; VEGF-A165, PlGF-2, FGF-2
Experimental: To verify that cytokines bound to Fg β15-66 are still bioactive, the proliferation of HUVEC cells was tested for different cytokines with and without the presence of Fg β15-66. Method: HUVEC cells were stimulated with various cytokines: VEGF-A165, PlGF-2, and FGF-2 with or without fibrinogen or Fg β15-66 in excess (≧100-fold molar excess).

[2] = target: T2, binding of TNC III1-5 to cytokines (Homo sapiens, UniProt P24821); test: ELISA binding of TNC III1-5 to cytokines in presence of 4 μM heparin; details: heparin 4 μM; 100 nM TNC III1-5
T2 construct: factor Xa cleavage site (N); made in house; host or cells: HEK-293E
Experimental: ELISA plates were coated with cytokines or BSA and further incubated with TNC III1-5 to analyze binding of TNC III1-5 to a wide variety of cytokines. […] Results are depicted in FIG. 3. Method: 50 nM of cytokine was coated for (1 hr, 37° C.). After blocking with 2% BSA (1 hr, RT). 100 nM TNC III1-5 was applied in PBST (0.05% tween, 0.1% bovine serum albumin (BSA)) (1 hr, RT). TNC III1-5 was detected with horseradish peroxidase (HRP)-anti-HIS in PBST (1 hr, RT) and developed with 3,3′,5,5′-tetramethylbenzidine (TMB), a soluble colorimetric HRP […]. Addition of sulfuric acid stop solution changes the color to yellow, enabling accurate measurement of the intensity at 450 nm using a spectrophotometer or plate reader. […] Heparin (4 μM) was added to TNC III1-5 to test the effect of blocking the heparin binding site of TNC III1-5, which has been defined as domain TNC III5 (Weber, Zimmermann, et al., 1995).

skin wounds = details: applied topically for five consecutive days; 20 μg/wound VEGF-A165 or 10 μg/wound PDGF-BB; cited from earlier work
PDGF-BB = PDGF-BB (Homo sapiens, UniProt P01127); test: ELISA of individual TNC domains binding PDGF-BB
Experimental: An ELISA was performed to test the affinity of different domains present in TNC1-5 to PDGF-BB as an example cytokine that has shown to bind TNC III1-5. […] Method: ELISA plates were coated with individual TNC domains fused to GST, as well as GST and BSA. Wells were blocked with BSA and then incubated with 2 nM PDGF-BB. Binding of PDGF-BB was detected using an anti-PDGF-BB antibody and then a secondary horseradish peroxidase conjugated antibody.

Molecule: FN III9*-10-TNC III1-5: fusion protein of fibronectin integrin binding domain FN III9*-10 and TNC III1-5 with TG substrate, SEQ ID NO:5
- SMC proliferation on top of a PEG gel, fusion vs TNC III1-5 (SMC; addition of FN III9*-10 to TNC III1-5): significantly enhanced SMC proliferation
- SMC proliferation on TG-PEG gels (2%) (SMC; in the presence of PDGF-BB, 5 μM fragment, 72 hours): enhanced SMC proliferation

Molecule: TNC: full length tenascin C, extracellular matrix glycoprotein, used as competitor
- competition of binding of TNC III1-5 to the cytokines [1]: competed away binding

Molecule: fibrinogen [reference compound]
- synergistic effect on HUVEC proliferation, cytokines plus protein vs cytokines alone (HUVEC cells): no synergistic effect

Molecule: heparin
- effect on binding of TNC III1-5 to cytokines [2]: impaired binding
- competition of binding of TNC III1-5 to the cytokines [1]: competed away binding

B1: VEGF-A165: vascular endothelial growth factor, cytokine applied topically (protein)
chain: APMAEGGGQNHHEVVKFMDVYQRSYCHPIETLVDIFQEYPDEIEYIFKPSCVPLMRCGGCCNDEGLECVPTEESNITMQIMRIKPHQGQHIGEMSFLQHNKCECRPKKDRARQENPCGPCSERRKHLFVQDPQTCKCSCKNTDSRCKARQLELNERTCRCDKPRR
- efficacy in the db/db mouse (skin wounds): efficient

B2: TNC III5: fifth fibronectin type III domain of tenascin C, heparin-binding; tested as GST fusion (protein)
chain: LQVSETAETSLTLLWKTPLAKFDRYRLNYSLPTGQWVGVQLPRNTTSYVLRGLEPGQEYNVLLTAEKGRHKSKPARVKASTEQA
modifications: left off: a dimerising Fc or GST
notes: tested as GST fusion
- domain responsible for binding of PDGF-BB (PDGF-BB; GST-fused TNC domains coated, 2 nM PDGF-BB): responsible for cytokine binding

B3: PDGF-BB: platelet derived growth factor BB (REGRANEx®) applied topically (protein)
chain: SLGSLTIAEPAMIAECKTRTEVFEISRRLIDRTNANFLVWPPCVEVQRCSGCCNNRNVQCRPTQVQLRPVQVRKIEIVRKKPIFKKATVTLEDHLACKCETVAAARPVT
- efficacy in the db/db mouse (skin wounds): efficient

B4: TNC III4-5: fibronectin type III domains 4-5 of tenascin C (protein)
chain: APRNLRRVSQTDNSITLEWRNGKAAIDSYRIKYAPISGGDHAEVDVPKSQQATTKTTLTGLRPGTEYGIGVSAVKEDKESNPATINAATELDTPKDLQVSETAETSLTLLWKTPLAKFDRYRLNYSLPTGQWVGVQLPRNTTSYVLRGLEPGQEYNVLLTAEKGRHKSKPARVKASTEQA
- cytokine-binding (PDGF-BB; test not specified): demonstrated cytokine-binding

Source: patent publication US9540428B2, “Extracellular matrix heparin-binding domains” (EPFL-TTO, priority 2012, dated 2017)
